Patent publication US10370401B2, “Substituted nucleosides, nucleotides and analogs thereof” (Alios BioPharma, Inc., priority 2013, dated 2019)
Where two headings read alike, the source gives them in different places.

Tests used:
Human rhinovirus 1B = assay: Picornavirus assay (CPE, CellTiter-Glo, HeLa-OHIO cells); assay type: cell-based; settings: Rhinovirus A, 96 h
subgenomic HCV replicon = assay: HCV replicon assay (Huh-7, luciferase reporter); assay type: cell-based; settings: Hepatitis C virus
NS5B570-Con1 (Delta-21) = NS5B570-Con1 (Delta-21) (Hepatitis C virus genotype 1b, UniProt Q9WMX2); assay: biochemical; design: species or system HCV
[1] = target: human rhinovirus 16 polymerase (HRV16pol) (Human rhinovirus 16, UniProt Q82122); assay: biochemical; settings: HRV16pol, 2.5 h at 30° C., mean of several independent experiments; read-out: IC50
Chain of human rhinovirus 16 polymerase (HRV16pol) (Q82122 1694-2153 limits assumed): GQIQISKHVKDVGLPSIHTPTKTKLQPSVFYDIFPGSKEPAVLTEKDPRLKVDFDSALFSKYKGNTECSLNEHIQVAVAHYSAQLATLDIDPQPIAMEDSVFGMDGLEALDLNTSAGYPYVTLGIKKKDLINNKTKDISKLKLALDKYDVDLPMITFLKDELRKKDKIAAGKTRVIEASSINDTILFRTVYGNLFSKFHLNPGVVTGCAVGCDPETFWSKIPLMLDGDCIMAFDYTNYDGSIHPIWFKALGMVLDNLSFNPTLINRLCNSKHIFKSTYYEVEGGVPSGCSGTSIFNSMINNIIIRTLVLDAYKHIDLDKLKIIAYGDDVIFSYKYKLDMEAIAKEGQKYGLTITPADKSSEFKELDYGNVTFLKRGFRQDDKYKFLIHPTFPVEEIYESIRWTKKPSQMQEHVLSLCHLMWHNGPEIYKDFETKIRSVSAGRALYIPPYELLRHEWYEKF

[2] = Human rhinovirus 1B, HeLa-OHIO cells, 4 d at 33° C., read-out: EC50
[3] = Huh-7 HCV replicon cells, luciferase, 72 hours, read-out: EC50

SMILES | EC50 (Human rhinovirus 1B; [2]) | EC50 (subgenomic HCV replicon; [3]) | IC50 (NS5B570-Con1 (Delta-21)) | IC50 [1] | other results
CCOc1nc(N)nc2c1ncn2[C@@H]1O[C@](F)(COP(=O)(N[C@@H](C)C(=O)OCC(C)(C)C)Oc2ccccc2)[C@@H](F)[C@@]1(C)O (some centres unmarked) [Compound 21] | – | – | – | – | EC50 (Human rhinovirus 1B): < 1 µM; EC50 (subgenomic HCV replicon; Huh-7, 72 h): 1 to 10 µM
CCOc1nc(N)nc2c1ncn2[C@@H]1O[C@](F)(COP(=O)(N[C@@H](C)C(=O)OC(C)C)Oc2ccccc2)[C@@H](F)[C@@]1(C)O (some centres unmarked) [Compound 22] | – | – | – | – | EC50 (Human rhinovirus 1B): 1 to 10 µM; EC50 (subgenomic HCV replicon; Huh-7, 72 h): 1 to 10 µM
CCOc1nc(N)nc2c1ncn2[C@@H]1O[C@](CF)(COP(=O)(N[C@@H](C)C(=O)OC2CCCCC2)Oc2ccccc2)[C@@H](O)[C@@]1(C)O (some centres unmarked) [Compound 36] | – | – | – | – | EC50 (Human rhinovirus 1B): < 1 µM; EC50 (subgenomic HCV replicon; Huh-7, 72 h): < 1 µM
CC(C)OC(=O)OCOP(=O)(OCOC(=O)OC(C)C)OC[C@@]1(CCl)O[C@@H](n2ccc(=O)[nH]c2=O)[C@](C)(O)[C@@H]1O [Compound 43] | 10 to 100 µM | < 1 µM | – | – | –
CC(C)OC(=O)OCOP(=O)(OCOC(=O)OC(C)C)OC[C@@]1(CF)O[C@@H](n2ccc(=O)n(COC(=O)C(N)C(C)C)c2=O)[C@](C)(O)[C@@H]1O (some centres unmarked) [Compound 52] | – | – | – | – | EC50 (Human rhinovirus 1B): < 1 µM; EC50 (subgenomic HCV replicon; Huh-7, 72 h): < 1 µM
CCOc1nc(N)nc2c1ncn2[C@@H]1O[C@](F)(COP(=O)(OCOC(=O)OC(C)C)OCOC(=O)OC(C)C)[C@@H](F)[C@@]1(C)O [Compound 57] | < 1 µM | < 1 µM | – | – | –
C#C[C@@]1(O)[C@H](O)[C@@](CF)(COP(=O)(OCOC(=O)OC(C)C)OCOC(=O)OC(C)C)O[C@H]1n1cnc2c(N)ncnc21 [Compound 63] | < 1 µM | 1 to 10 µM | – | – | –
C#C[C@@]1(O)[C@H](O)[C@@](CCl)(COP(=O)(OCOC(=O)OC(C)C)OCOC(=O)OC(C)C)O[C@H]1n1cnc2c(N)ncnc21 [Compound 64] | 1 to 10 µM | 10 to 100 µM | – | – | –
COC(=O)OCOP(=O)(OCOC(=O)OC)OC[C@@]1(CF)O[C@@H](n2ccc(=O)[nH]c2=O)[C@](C)(O)[C@@H]1O [Compound 65] | 10 to 100 µM | 10 to 100 µM | – | – | –
CC(=O)OCOP(=O)(OCOC(C)=O)OC[C@@]1(CF)O[C@@H](n2ccc(=O)[nH]c2=O)[C@](C)(O)[C@@H]1O [Compound 67] | – | 10 to 100 µM | – | – | –
CC(C)C(=O)OCOP(=O)(OCOC(=O)C(C)C)OC[C@@]1(CF)O[C@@H](n2ccc(=O)[nH]c2=O)[C@](C)(O)[C@@H]1O [Compound 70] | 1 to 10 µM | 1 to 10 µM | – | – | –
CCOC(=O)OCOP(=O)(OCOC(=O)OCC)OC[C@@]1(CF)O[C@@H](n2ccc(=O)n(COC(=O)C(N)C(C)C)c2=O)[C@](C)(O)[C@@H]1O (some centres unmarked) [Compound 71] | – | – | – | – | EC50 (Human rhinovirus 1B): 1 to 10 µM; EC50 (subgenomic HCV replicon; Huh-7, 72 h): 1 to 10 µM
C=C[C@]1(CO)O[C@@H](n2ccc(N)nc2=O)C(F)(F)[C@@H]1O [Compound 75] | 1 to 10 µM | – | – | – | EC50 (subgenomic HCV replicon; Huh-7, 72 h): 10 to 100 µM
CC(C)OC(=O)OCOP(=O)(OCOC(=O)OC(C)C)OC[C@@]1(CF)O[C@@H](n2cnc3c(N)ncnc32)[C@](C)(O)[C@@H]1O [Compound 84] | < 1 µM | 1 to 10 µM | – | – | –
[N-]=[N+]=NC[C@]1(CO)O[C@@H](n2ccc(N)nc2=O)[C@H](F)[C@@H]1O [Compound 106] | 1 to 10 µM | 10 to 100 µM | – | – | –
CC(C)(CO)C(=O)SCCOP(=O)(NCc1ccccc1)OC[C@@]1(CF)O[C@@H](n2ccc(=O)[nH]c2=O)[C@](C)(O)[C@@H]1O (some centres unmarked) [Compound 280] | 10 to 100 µM | 10 to 100 µM | – | – | –
CC(C)OC(=O)OCOP(=O)(OCOC(=O)OC(C)C)OC[C@@]1(CF)O[C@@H](n2ccc(=O)[nH]c2=O)[C@](C)(O)[C@@H]1OC(=O)[C@H](C)N [Compound 281] | – | – | – | – | EC50 (Human rhinovirus 1B): < 1 µM; EC50 (subgenomic HCV replicon; Huh-7, 72 h): < 1 µM
CC(C)OC(=O)OCOP(=O)(OCOC(=O)OC(C)C)OC[C@@]1(CF)O[C@@H](n2ccc(=O)[nH]c2=O)[C@](C)(O)[C@@H]1OC(=O)CN [Compound 282] | – | – | – | – | EC50 (Human rhinovirus 1B): < 1 µM; EC50 (subgenomic HCV replicon; Huh-7, 72 h): < 1 µM
CC(C)OC(=O)[C@H](C)NP(=O)(OCCSC(=O)C(C)(C)CO)OC[C@@]1(CF)O[C@@H](n2ccc(=O)[nH]c2=O)[C@](C)(O)[C@@H]1O (some centres unmarked) [Compound 283] | 10 to 100 µM | 1 to 10 µM | – | – | –
CC(C)OC(=O)OCOP(=O)(OCOC(=O)OC(C)C)OC[C@@]1(CF)O[C@@H](n2ccc(=O)n(COP(=O)(O)O)c2=O)[C@](C)(O)[C@@H]1O [Compound 284] | 1 to 10 µM | 1 to 10 µM | – | – | –
CC(C)OC(=O)OCOP(=O)(N[C@@H](C)C(=O)OC(C)C)OC[C@@]1(CF)O[C@@H](n2ccc(=O)[nH]c2=O)[C@](C)(O)[C@@H]1O (some centres unmarked) [Compound 286] | 1 to 10 µM | < 1 µM | – | – | –
CC(C)(CO)C(=O)SCCOP(=O)(OCCSC(=O)C(C)(C)CO)OC[C@@]1(CF)O[C@@H](n2ccc(=O)[nH]c2=O)[C@](C)(O)[C@@H]1O [Compound 288] | – | – | – | – | EC50 (Human rhinovirus 1B): 10 to 100 µM; EC50 (subgenomic HCV replicon; Huh-7, 72 h): 10 to 100 µM
Nc1ccn([C@@H]2O[C@H](CO)[C@@H](O)[C@]2(O)CF)c(=O)n1 [Compound 295] | 10 to 100 µM | 1 to 10 µM | – | – | –
N#C[C@]1(CO)O[C@@H](n2ccc(N)nc2=O)C(F)(F)[C@@H]1O [Compound 298] | 1 to 10 µM | 10 to 100 µM | – | – | –

SMILES | EC50 (Human rhinovirus 1B; [2]) | EC50 (subgenomic HCV replicon; [3]) | IC50 (NS5B570-Con1 (Delta-21)) | IC50 [1] | other results
C#C[C@@]1(O)[C@H](O)[C@@H](COP(=O)(O)OP(=O)(O)OP(=O)(O)O)O[C@H]1n1ccc2c(N)ncnc21 [compound 205] | – | – | < 1 µM | < 1 µM | –
C[C@]1(N=[N+]=[N-])[C@H](n2ccc(N)nc2=O)O[C@](F)(COP(=O)(O)OP(=O)(O)OP(=O)(O)O)[C@H]1O [compound 208] | – | – | < 1 µM | < 10 µM | –
C=C[C@]1(O)[C@H](n2ccc(=O)[nH]c2=O)O[C@](F)(COP(=O)(O)OP(=O)(O)OP(=O)(O)O)[C@H]1O [compound 236] | – | – | 1 to 10 µM | < 10 µM | –
CC[C@]1(O)[C@H](n2ccc(=O)[nH]c2=O)O[C@](F)(COP(=O)(O)OP(=O)(O)OP(=O)(O)O)[C@H]1O [compound 239] | – | – | 10 to 100 µM | < 10 µM | –
C[C@]1(O)[C@H](n2cnc3c(N)ncnc32)O[C@](F)(COP(=O)(O)OP(=O)(O)OP(=O)(O)O)[C@H]1O [compound 240] | – | – | < 1 µM | < 1 µM | –
C[C@]1(O)[C@H](n2ccc(N)nc2=O)O[C@](C)(COP(=O)(O)OP(=O)(O)OP(=O)(O)O)[C@H]1O [compound 243] | – | – | 1 to 10 µM | < 10 µM | –
C[C@@]1(O)[C@H](O)[C@@](CCl)(COP(=O)(O)OP(=O)(O)OP(=O)(O)O)O[C@H]1n1ccc(=O)[nH]c1=O [compound 244] | – | – | < 1 µM | < 10 µM | –
C#C[C@@]1(O)[C@H](O)[C@@](CCl)(COP(=O)(O)OP(=O)(O)OP(=O)(O)O)O[C@H]1n1cnc2c(N)ncnc21 [compound 245] | – | – | 10 to 100 µM | < 1 µM | –
C[C@@]1(Cl)[C@H](O)[C@@H](COP(=O)(O)OP(=O)(O)OP(=O)(O)O)O[C@H]1n1cnc2c(=O)[nH]c(N)nc21 [compound 246] | – | – | < 1 µM | < 1 µM | –
C[C@@]1(O)[C@H](O)[C@@](CN=[N+]=[N-])(COP(=O)(O)OP(=O)(O)OP(=O)(O)O)O[C@H]1n1ccc(=O)[nH]c1=O [compound 249] | – | – | 10 to 100 µM | < 100 µM | –
CC#C[C@@]1(O)[C@H](O)[C@@](CF)(COP(=O)(O)OP(=O)(O)OP(=O)(O)O)O[C@H]1n1ccc(=O)[nH]c1=O [compound 252] | – | – | 1 to 10 µM | < 10 µM | –
C=CC[C@@]1(O)[C@H](O)[C@@](CF)(COP(=O)(O)OP(=O)(O)OP(=O)(O)O)O[C@H]1n1ccc(=O)[nH]c1=O [compound 253] | – | – | 10 to 100 µM | < 10 µM | –
C[C@@]1(O)[C@H](O)[C@@](CF)(COP(=O)(O)OP(=O)(O)OP(=O)(O)O)O[C@H]1n1ccc2c(N)ncnc21 [compound 254] | – | – | < 1 µM | < 1 µM | –
C=C=C[C@@]1(O)[C@H](O)[C@@](CF)(COP(=O)(O)OP(=O)(O)OP(=O)(O)O)O[C@H]1n1ccc(=O)[nH]c1=O [compound 255] | – | – | 1 to 10 µM | < 10 µM | –
O=c1ccn([C@@H]2O[C@](CF)(COP(=O)(O)OP(=O)(O)OP(=O)(O)O)[C@@H](O)[C@]2(O)CF)c(=O)[nH]1 [compound 256] | – | – | 10 to 100 µM | < 10 µM | –
Nc1ccn([C@@H]2O[C@](CF)(COP(=O)(O)OP(=O)(O)OP(=O)(O)O)[C@@H](O)[C@]2(O)CF)c(=O)n1 [compound 258] | – | – | 10 to 100 µM | < 1 µM | –
C[C@]1(O)[C@H](n2ccc(=O)[nH]c2=O)O[C@@](COP(=O)(O)OP(=O)(O)OP(=O)(O)O)(C(F)F)[C@H]1O [compound 273] | – | – | 10 to 100 µM | < 10 µM | –
Nc1ccn([C@@H]2O[C@H](COP(=O)(O)OP(=O)(O)OP(=O)(O)O)[C@@H](O)[C@]2(O)CF)c(=O)n1 [compound 276] | – | – | < 1 µM | < 10 µM | –
C[C@]1(COP(=O)(O)OP(=O)(O)OP(=O)(O)O)O[C@@H](n2ccc(N)nc2=O)C(F)(F)[C@@H]1O [compound 277] | – | – | 10 to 100 µM | < 10 µM | –
Nc1ncnc2c1ncn2[C@@H]1O[C@H](COP(=O)(O)OP(=O)(O)OP(=O)(O)O)[C@@H](O)[C@]1(O)CF [compound 278] | – | – | 1 to 10 µM | < 100 µM | –
C#C[C@]1(COP(=O)(O)OP(=O)(O)OP(=O)(O)O)O[C@@H](n2ccc(N)nc2=O)C(F)(F)[C@@H]1O [compound 279] | – | – | 10 to 100 µM | < 10 µM | –
C[C@]1(CO)O[C@@H](n2ccc(N)nc2=O)C(F)(F)[C@@H]1O [compound 300] | < 1 µM | 10 to 100 µM | – | – | –
Nc1ncnc2c1ncn2[C@@H]1O[C@H](CO)[C@@H](O)[C@]1(O)CF [compound 301] | 10 to 100 µM | < 1 µM | – | – | –
C=C[C@]1(CO)O[C@@H](n2ccc(N)nc2=O)[C@H](O)[C@@H]1O [compound 303] | 10 to 100 µM | 1 to 10 µM | – | – | –
